According to ChEMBL document CHEMBL5465560, “Selectivity Literature for EUbOPEN Chemogenomic Library” (2024):

How the values were obtained:
[1] = biological target: Homeodomain-interacting protein kinase 1 (Homo sapiens, UniProt Q86Z02); assay: Selectivity interaction (KinomeScan (DiscoverX)) EUB0000092b HIPK1; details: at 10 µM
[2] = biological target: Serine/threonine-protein kinase VRK2 (Homo sapiens) (UniProt Q86Y07); assay: Selectivity interaction (ProQinase) EUB0000171b VRK2
[3] = biological target: T1, Tyrosine-protein kinase ZAP-70 (Homo sapiens) (UniProt P43403); assay: Selectivity interaction (Kinase panel (KiNativ target engagement assay in Jurkat cells)) EUB0001635a ZAP70; type: cell-based; details: at 1 µM
T1 sequence (whole entry): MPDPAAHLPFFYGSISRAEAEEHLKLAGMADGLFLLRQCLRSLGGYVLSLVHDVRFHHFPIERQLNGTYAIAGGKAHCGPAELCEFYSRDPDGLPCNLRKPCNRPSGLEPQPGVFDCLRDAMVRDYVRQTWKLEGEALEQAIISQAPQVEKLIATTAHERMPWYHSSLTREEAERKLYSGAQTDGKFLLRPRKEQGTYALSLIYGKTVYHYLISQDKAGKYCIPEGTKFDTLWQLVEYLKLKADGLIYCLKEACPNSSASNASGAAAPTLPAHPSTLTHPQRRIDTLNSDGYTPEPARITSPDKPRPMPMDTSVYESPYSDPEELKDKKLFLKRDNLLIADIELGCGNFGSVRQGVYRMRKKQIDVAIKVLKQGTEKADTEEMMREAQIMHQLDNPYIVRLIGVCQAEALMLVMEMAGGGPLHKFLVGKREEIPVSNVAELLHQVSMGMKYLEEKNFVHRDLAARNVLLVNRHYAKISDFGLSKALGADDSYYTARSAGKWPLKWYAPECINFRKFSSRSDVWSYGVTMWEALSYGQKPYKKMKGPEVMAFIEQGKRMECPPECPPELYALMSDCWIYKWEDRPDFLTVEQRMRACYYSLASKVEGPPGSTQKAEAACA

Vasopressin V2 receptor = Vasopressin V2 receptor (Homo sapiens, UniProt P30518); assay: Selectivity interaction (Vasopressin V2 receptor binding assay, human recombinant ) EUB0000877a AVPR2
[4] = biological target: T2, Aurora kinase A (Homo sapiens) (UniProt O14965); assay: Selectivity interaction (KinaseProfiler screening (Millipore)) EUB0000601a STK6; details: at 3 µM
T2 sequence (whole entry): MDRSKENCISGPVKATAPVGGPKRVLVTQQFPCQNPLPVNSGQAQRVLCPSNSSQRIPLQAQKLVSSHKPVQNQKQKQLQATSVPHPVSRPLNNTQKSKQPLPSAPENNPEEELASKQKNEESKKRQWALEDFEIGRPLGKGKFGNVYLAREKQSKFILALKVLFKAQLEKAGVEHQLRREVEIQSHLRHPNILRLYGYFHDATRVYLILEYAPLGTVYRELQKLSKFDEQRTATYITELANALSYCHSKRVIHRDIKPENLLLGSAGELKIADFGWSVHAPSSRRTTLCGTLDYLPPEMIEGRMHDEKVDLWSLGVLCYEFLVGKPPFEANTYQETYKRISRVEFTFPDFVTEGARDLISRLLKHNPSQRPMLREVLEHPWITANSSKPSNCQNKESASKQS

[5] = biological target: T3, Mitogen-activated protein kinase kinase kinase 12 (Homo sapiens) (UniProt Q12852); details: at 10 µM
T3 sequence (whole entry): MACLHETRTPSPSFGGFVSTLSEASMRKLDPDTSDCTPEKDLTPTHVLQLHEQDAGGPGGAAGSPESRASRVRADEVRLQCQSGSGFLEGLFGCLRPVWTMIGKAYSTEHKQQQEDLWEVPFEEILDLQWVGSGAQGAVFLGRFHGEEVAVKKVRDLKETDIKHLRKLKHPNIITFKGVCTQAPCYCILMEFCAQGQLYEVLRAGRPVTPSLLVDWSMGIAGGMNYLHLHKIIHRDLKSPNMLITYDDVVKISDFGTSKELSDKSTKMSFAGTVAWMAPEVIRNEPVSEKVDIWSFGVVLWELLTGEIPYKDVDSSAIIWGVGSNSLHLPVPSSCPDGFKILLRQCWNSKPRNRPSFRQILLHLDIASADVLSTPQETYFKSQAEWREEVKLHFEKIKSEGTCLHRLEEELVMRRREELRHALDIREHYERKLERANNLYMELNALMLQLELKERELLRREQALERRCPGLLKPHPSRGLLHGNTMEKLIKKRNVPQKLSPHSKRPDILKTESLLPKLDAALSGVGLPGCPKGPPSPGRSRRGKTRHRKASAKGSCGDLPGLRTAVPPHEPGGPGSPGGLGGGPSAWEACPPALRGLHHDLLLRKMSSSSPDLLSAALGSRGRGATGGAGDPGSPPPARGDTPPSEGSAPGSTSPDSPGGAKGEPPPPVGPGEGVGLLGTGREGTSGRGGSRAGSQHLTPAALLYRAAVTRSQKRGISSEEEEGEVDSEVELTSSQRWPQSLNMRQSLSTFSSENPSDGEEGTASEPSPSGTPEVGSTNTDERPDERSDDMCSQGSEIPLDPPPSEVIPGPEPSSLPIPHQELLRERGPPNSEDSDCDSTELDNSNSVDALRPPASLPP

[6] = biological target: Tyrosine-protein kinase Fer (Homo sapiens) (UniProt P16591); assay: Selectivity interaction (Kinase panel (Z-LYTE Assay)) EUB0001632a FER; details: at 10 µM
[7] = biological target: Tyrosine-protein kinase JAK1 (Homo sapiens, UniProt P23458); assay: Selectivity interaction (KinomeScan (DiscoverX)) EUB0001049a JAK1; details: at 1 µM
[8] = biological target: Tyrosine-protein kinase Lck (Homo sapiens, UniProt P06239); assay: Selectivity interaction (KinomeScan (DiscoverX)) EUB0000595a LCK; details: at 10 µM
[9] = biological target: Sodium-dependent dopamine transporter (Homo sapiens, UniProt Q01959); assay: Selectivity interaction (Eurofins CEREP Diversity Profile (receptors and ion channels)) EUB0000279b SLC6A3; details: at 10 µM
[10] = biological target: Mitogen-activated protein kinase 3 (Homo sapiens, UniProt P27361); assay: Selectivity interaction (Ambit KINOMEscan and KiNATiv profiling in Jurkat cells) EUB0000090b MAPK3; type: cell-based; details: at 1 µM
Sequence of Mitogen-activated protein kinase 3 (P27361 whole entry): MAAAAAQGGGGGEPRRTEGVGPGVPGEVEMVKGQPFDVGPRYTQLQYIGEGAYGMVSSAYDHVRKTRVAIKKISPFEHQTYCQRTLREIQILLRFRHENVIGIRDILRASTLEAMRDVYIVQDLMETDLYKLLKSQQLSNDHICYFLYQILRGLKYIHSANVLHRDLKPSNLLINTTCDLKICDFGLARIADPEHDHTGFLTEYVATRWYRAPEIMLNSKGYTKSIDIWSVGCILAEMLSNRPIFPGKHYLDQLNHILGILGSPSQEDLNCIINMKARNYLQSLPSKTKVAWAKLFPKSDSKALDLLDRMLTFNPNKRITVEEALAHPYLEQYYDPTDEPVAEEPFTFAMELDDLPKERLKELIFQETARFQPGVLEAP

Sequence of Serine/threonine-protein kinase VRK2 (Homo sapiens) (Q86Y07 whole entry): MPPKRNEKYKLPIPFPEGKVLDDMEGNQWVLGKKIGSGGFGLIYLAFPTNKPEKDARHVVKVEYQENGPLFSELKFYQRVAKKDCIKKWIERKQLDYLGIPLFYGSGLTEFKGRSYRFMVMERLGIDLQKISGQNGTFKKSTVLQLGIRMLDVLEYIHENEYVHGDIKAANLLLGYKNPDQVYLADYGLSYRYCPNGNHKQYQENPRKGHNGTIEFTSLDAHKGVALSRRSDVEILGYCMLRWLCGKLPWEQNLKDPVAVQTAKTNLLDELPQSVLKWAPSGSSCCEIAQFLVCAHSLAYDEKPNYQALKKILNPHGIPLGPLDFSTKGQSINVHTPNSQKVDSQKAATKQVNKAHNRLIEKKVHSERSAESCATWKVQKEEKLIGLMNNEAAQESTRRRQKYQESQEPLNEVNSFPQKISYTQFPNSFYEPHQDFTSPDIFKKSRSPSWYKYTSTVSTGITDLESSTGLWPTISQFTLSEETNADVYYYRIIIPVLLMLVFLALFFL
Sequence of Tyrosine-protein kinase JAK1 (P23458 whole entry): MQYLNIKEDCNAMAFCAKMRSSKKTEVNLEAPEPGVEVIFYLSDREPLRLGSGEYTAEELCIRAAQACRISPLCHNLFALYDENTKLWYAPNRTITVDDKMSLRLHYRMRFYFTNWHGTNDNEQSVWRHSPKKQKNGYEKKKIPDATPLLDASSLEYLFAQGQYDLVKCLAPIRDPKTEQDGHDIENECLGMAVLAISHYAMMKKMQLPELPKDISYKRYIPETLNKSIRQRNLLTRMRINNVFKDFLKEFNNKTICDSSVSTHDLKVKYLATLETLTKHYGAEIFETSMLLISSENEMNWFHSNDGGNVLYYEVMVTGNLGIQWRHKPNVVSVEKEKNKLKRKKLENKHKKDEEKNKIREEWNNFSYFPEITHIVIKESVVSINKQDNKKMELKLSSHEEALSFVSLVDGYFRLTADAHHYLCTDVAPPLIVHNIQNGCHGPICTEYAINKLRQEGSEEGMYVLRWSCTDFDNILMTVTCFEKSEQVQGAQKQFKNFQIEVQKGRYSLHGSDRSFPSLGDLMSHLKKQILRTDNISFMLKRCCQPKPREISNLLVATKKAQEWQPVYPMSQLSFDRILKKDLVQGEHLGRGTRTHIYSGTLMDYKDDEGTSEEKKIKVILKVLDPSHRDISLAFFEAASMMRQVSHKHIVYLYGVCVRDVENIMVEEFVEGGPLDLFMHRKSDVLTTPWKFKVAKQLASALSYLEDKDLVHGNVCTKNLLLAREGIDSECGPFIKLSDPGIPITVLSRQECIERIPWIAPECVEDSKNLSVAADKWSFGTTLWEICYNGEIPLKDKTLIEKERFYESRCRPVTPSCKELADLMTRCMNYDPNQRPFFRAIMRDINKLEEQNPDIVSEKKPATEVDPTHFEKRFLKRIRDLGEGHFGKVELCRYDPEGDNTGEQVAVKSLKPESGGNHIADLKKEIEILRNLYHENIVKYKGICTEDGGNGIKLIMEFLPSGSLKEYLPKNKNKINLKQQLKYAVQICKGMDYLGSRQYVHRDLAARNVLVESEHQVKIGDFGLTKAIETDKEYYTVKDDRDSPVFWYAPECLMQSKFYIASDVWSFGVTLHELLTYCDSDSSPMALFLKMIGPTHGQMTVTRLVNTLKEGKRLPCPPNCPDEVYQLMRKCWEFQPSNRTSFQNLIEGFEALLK
Sequence of Tyrosine-protein kinase Lck (P06239 2-509 limits assumed): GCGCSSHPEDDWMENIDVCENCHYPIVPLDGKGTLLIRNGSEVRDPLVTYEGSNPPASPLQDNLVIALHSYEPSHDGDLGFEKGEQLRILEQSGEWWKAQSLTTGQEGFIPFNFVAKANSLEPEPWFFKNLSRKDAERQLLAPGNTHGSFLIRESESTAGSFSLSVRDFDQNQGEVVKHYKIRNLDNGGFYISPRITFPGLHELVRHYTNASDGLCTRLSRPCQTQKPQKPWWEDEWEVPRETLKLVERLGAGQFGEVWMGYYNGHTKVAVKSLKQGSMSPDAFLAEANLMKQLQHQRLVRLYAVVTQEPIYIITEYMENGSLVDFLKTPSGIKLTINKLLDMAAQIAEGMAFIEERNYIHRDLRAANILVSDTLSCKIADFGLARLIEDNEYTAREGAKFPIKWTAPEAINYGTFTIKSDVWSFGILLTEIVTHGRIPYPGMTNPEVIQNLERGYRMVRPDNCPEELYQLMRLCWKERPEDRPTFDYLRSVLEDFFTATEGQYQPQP
Sequence of Homeodomain-interacting protein kinase 1 (Q86Z02 whole entry, looked up): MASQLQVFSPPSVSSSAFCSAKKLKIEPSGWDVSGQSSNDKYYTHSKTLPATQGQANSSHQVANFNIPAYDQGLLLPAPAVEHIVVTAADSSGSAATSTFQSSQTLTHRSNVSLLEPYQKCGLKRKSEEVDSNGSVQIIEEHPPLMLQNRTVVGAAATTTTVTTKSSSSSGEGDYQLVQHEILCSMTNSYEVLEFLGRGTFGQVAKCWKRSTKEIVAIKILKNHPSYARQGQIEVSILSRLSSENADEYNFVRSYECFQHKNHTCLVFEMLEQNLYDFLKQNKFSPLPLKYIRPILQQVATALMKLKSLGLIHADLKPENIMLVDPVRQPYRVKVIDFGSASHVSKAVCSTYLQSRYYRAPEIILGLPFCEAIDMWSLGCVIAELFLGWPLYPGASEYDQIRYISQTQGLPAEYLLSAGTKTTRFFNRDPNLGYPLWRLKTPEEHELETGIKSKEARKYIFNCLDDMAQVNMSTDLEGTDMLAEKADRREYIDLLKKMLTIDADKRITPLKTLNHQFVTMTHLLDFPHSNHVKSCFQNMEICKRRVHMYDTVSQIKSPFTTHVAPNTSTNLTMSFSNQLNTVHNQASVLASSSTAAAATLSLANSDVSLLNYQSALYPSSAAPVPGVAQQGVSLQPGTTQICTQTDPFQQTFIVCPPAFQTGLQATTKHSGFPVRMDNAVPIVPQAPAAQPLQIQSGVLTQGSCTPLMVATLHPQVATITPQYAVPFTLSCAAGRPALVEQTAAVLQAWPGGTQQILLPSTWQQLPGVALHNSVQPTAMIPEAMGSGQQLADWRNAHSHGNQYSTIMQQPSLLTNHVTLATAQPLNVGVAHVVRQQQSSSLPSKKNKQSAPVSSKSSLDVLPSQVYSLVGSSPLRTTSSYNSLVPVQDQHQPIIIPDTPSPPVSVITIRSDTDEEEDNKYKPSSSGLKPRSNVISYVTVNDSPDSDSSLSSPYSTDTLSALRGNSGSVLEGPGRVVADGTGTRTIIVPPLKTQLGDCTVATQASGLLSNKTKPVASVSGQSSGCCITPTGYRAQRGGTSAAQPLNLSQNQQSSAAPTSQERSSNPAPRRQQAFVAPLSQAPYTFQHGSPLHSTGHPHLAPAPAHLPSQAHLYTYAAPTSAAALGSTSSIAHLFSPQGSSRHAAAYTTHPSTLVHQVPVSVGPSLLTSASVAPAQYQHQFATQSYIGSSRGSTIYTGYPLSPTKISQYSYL
Sequence of Tyrosine-protein kinase Fer (Homo sapiens) (P16591 whole entry, looked up): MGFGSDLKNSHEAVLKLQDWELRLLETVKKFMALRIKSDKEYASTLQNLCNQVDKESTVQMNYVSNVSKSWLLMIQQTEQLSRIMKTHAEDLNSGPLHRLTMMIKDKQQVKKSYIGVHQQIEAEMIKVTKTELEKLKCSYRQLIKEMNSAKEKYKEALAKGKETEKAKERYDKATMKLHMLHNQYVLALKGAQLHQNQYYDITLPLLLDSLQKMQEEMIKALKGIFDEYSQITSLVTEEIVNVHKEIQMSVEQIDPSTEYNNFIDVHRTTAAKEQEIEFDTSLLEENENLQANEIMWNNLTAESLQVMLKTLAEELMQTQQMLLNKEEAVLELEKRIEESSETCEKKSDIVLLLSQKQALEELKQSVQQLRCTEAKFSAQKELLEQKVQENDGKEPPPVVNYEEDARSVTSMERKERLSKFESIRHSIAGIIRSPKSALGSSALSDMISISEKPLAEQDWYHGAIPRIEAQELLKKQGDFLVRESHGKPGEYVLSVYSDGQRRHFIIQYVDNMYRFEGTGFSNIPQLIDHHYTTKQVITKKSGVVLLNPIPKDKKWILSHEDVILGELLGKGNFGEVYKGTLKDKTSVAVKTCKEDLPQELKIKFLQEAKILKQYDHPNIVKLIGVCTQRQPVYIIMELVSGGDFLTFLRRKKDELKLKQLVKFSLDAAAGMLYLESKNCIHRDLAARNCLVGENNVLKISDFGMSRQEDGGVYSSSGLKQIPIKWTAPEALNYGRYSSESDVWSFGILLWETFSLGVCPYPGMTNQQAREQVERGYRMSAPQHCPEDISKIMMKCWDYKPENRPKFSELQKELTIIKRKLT
Sequence of Vasopressin V2 receptor (P30518 whole entry): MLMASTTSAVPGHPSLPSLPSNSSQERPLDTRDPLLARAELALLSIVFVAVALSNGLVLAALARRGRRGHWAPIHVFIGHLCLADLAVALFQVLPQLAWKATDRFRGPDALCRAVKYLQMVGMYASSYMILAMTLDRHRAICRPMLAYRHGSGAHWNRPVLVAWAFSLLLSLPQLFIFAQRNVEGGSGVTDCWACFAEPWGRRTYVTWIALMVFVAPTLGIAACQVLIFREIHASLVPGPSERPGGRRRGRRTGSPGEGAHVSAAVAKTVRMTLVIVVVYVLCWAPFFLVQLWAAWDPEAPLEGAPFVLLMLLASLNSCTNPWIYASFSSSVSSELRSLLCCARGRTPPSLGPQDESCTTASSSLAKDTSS

**Q.** `CCC(=O)N1CCN(c2ccc(-n3c(=O)ccc4cnc5ccc(-c6cnc7ccccc7c6)cc5c43)cc2C(F)(F)F)CC1` was tested. Which % of control [1] did it give?
**A.** 63%

**Q.** Which % of control ([2]; at 1 µM) does the source give for `C=CC(=O)Nc1cccc(C(=O)Nc2ccc(Nc3cc(-c4[nH]c(SC)nc4C)ccn3)cc2)c1` here?
**A.** 97%

**Q.** What about the % of control ([2]; at 5 µM) of the same compound?
**A.** 83%

**Q.** How did the % of engagement ([3]; Selectivity number of off-targets 0.0, Selectivity number of targets 233.0, Source Knowledge https://www.sciencedirect.com/science/article/pii/S2451945619300674?via%3Dihub) turn out when `C=CC(=O)Nc1ccc(C(=O)Nc2[nH]nc3c2CN(C(=O)N[C@H](CN(C)C)c2ccccc2)C3(C)C)cc1` was run?
**A.** -13.8%

**Q.** What about the % of engagement [3] of the same compound?
**A.** -8.5%

**Q.** For `CCC(=O)N1CC[C@H](Nc2ncnc3c2CN(c2cnc(OC)c(C(F)(F)F)c2)CC3)C1` [LENIOLISIB], which IC50 (Vasopressin V2 receptor) is on record?
**A.** > 30 µM

**Q.** `CCc1cc(Nc2nccc(-c3c(-c4ccc(OC)c(C(=O)Nc5c(F)cccc5F)c4)nc4ccccn34)n2)c(OC)cc1N1CCC(N2CCN(S(C)(=O)=O)CC2)CC1` was tested. Which % of inhibition [4] did it give?
**A.** 76%

**Q.** With `Cc1cc([C@@H](C)Nc2ccccc2C(=O)O)c2nc(N3CCOCC3)cc(=O)n2c1` [AZD-6482] as the compound, how does the % of control [5] read?
**A.** 85%

**Q.** How did the % of control [6] turn out when `Cn1cc(-n2cnc3c(NCc4nc5cc(Cl)c(Cl)cc5[nH]4)nc(N4CCOCC4)nc32)cn1` was run?
**A.** 3.17%

**Q.** With `COc1cc(Nc2nc(C)cc(-c3cnn4nc(OC)ccc34)n2)cc(C(F)(F)F)c1` as the compound, how does the % of control [7] read?
**A.** 100%

**Q.** `COCC(=O)NC/C=C/c1ccc2ncnc(Nc3ccc(Oc4ccc(C)nc4)c(C)c3)c2c1` [CP-724714] was tested. Which % of control [8] did it give?
**A.** 59%

**Q.** How did the % of control [9] turn out when `CC(=O)c1cc(-c2ccccc2OCC2CC2)c2ncccn12` was run?
**A.** 80%

**Q.** Which % of control [10] does the source give for `CN(C)C/C=C/C(=O)Nc1ccc(C(=O)N2CCCC(Nc3ncc(Cl)c(-c4c[nH]c5ccccc45)n3)C2)cc1` (stereo not drawn) here?
**A.** 84%
